Laboratory results reported in patent publication US9908908B2, “Tenofovir prodrug and pharmaceutical uses thereof” (Jiangsu Hansoh Pharmaceutical Co., Ltd., priority 2012, dated 2018).
Read-outs that look alike come from different tables or passages of the source.

Experiments:
[1] = test system: HIV-1 (IIIb); assay: microbe, parasite or virus in culture; assay type: cell-based
Experimental: 1) MT-2 cells were infected with HIV-1 (IIIb) to form multiplicity of infection (MOI) 0.01 TCID50 per cell.
2) The mixture of virus and cells was incubated in a 384-well plate for 3 days.
4) The supernatant was transferred to a new plate and incubated with reporter cells (HeLa) for 24 hours.
5) Detecting beta-GAL activity to evaluate anti-HIV activity.
(§1) 7) The antiviral activity and cytotoxicity were calculated according to the following equation: Antiviral activity (%)=100−(Detection value−Maximum value)/(Minimum value−Maximum value)*100 Cytotoxicity (%)=100−(Detection value−Maximum value)/(Minimum value−Maximum value)*100 8) EC50 and CC50 were calculated with Fit Curve of Graphpad Prism 5 (the results are shown in Table 4).

[2] = Cytotoxicity in cells free of virus (anti-HIV test); assay type: cell-based; conditions: human
Experimental: (§2) 3) Cells for the cytotoxic detection were incubated in a 384-well plate for 3 days.
(§3) 6) Luminescent signal of the cells free of virus was detected to evaluate cytotoxicity after incubation for 3 days.
as §1

[3] = test system: hepatitis B virus (HBV); assay: In vitro anti-hepatitis B virus activity (HBV DNA-replication, dot blot); assay type: cell-based
Experimental: HepG 2.2.15 cell was used as the hepatitis B virus (HBV) vehicle to determine the inhibition effect of the compounds on DNA-replication of HBV.
Test method: HepG 2.2.15 cells were seeded into a 96-well culture plate. Various dilutions of test samples and positive control were added, respectively, after 24 hours, in which a cell control well was set. The medium was replaced with culture containing various dilutions of test samples after 72 hours. The supernatants and HepG 2.2.15 cells were collected after 6 days of culture.

[4] = Cytotoxicity test (CellTiter-Blue); assay type: cell-based; conditions: human; HepG 2.2.15 cells, 6 days of culture; read-out: Toxicity CC50
Experimental: (§4) Test method: HepG 2.2.15 cells were seeded into a 96-well culture plate and various dilutions of test samples and positive control were added, respectively. CellTiter-Blue (Promega, Catalog #G8081) was added for 6 days of culture.

[5] = test system: HepG 2.2.15 cells; assay: Cytotoxicity test (CellTiter-Blue); assay type: cell-based
Experimental: as §4

[6] = Metabolic stability in fresh human whole blood and distribution test in PBMCs; assay type: in vitro ADME; conditions: for active metabolite-tenofovir detected in plasma (in words): after incubation with fresh human whole blood
Experimental: Different tenofovir prodrugs were incubated together with fresh human whole blood at 37° C. Plasma and PBMCs were separated, respectively, from the whole blood (Ficoll density gradient centrifugation method) after 1 hour and 2 hours incubation to determine the concentrations of prototype drug and metabolite-tenofovir in plasma and PBMCs. The PBMCs were counted via cell counter and each PBMC was treated as 200 fL to calculate intracellular drug concentration.
20 μL of internal standard solution (400 ng/mL SN-38 solution), […], methanol-water (50:50, v/v), and 200 μL acetonitrile were added to 100 μL plasma sample or PBMC sample, respectively. The mixture was mixed by vortex for 1 min and centrifuged for 5 min (14000 rpm). 20 μL supernatant and 180 μl mobile phase were mixed by vortex for 1 min, and 10 μL of the above mixture was injected into LC/MS/MS for analysis.

[7] = Stability test in acidic medium (hydrochloric acid solution pH 2.0); assay type: physicochemical; conditions: for Change value / Purity after 6 hours / Initial purity: Acid medium (pH = 2); for Change value / Purity after 6 hours: 37° C., 6 hours; for Initial purity: initial sample
Experimental: 4.5 mL of 36% hydrochloric acid was transferred into a 1 L volumetric flask and diluted with water to 1 L to prepare a stock solution. Then 10 mL of the above solution was transferred into a 50 mL volumetric flask and diluted with water to 50 mL to prepare the hydrochloric acid solution with pH 2.0.
5.0 mg of GS-7340 were transferred into a 5 mL volumetric flask and mixed with 2.5 mL of isopropyl alcohol to dissolve GS-7340, and then the hydrochloric acid solution (pH 2.0) was added to 5 mL. The solution was shaken well and filtered for using.
5.0 mg of compound Ia1 were transferred into a 5 mL volumetric flask and mixed with 2.5 mL of isopropyl alcohol to dissolve compound Ia1, and then the hydrochloric acid solution (pH 2.0) was added to 5 mL. The solution was shaken well and filtered for using.
(§5) The prepared sample was filled into the chromatography vial as the initial sample and immediately injected. Meanwhile, the rest of the samples were put into a 37° C. incubator, and were injected into the HPLC system after 6 hours.

[8] = Stability test in simulated gastric juice (pepsin, pH 2.0); assay type: physicochemical; conditions: for Change value / Purity after 6 hours: 37° C., 6 hours; for Initial purity: initial sample
Experimental: 10 ml of the stock solution and 500.0 mg of pepsin were transferred into a 50 mL volumetric flask and diluted with water to 50 ml, which was then subjected to ultrasound to dissolve the pepsin (the solution was not clear now) and then filtered to give a clear solution as simulated gastric juice.
5.0 mg of GS-7340 were transferred into a 5 mL volumetric flask and mixed with 2.5 mL of isopropyl alcohol to dissolve GS-7340, and then the simulated gastric juice was added to 5 mL. The solution was shaken well and filtered for using.
5.0 mg of compound Ia1 were transferred into a 5 mL volumetric flask and mixed with 2.5 mL of isopropyl alcohol to dissolve compound Ia1, and then the simulated gastric juice was added to 5 mL. The solution was shaken well and filtered for using.
as §5

[9] = test system: MT-2 cells; assay: Cytotoxicity in cells free of virus (anti-HIV test); assay type: cell-based
Experimental: as §2, §3, §1

[10] = background statement; cited from earlier work
[11] = Hepatitis B virus, HepG2.2.15, 144 h
[12] = Human immunodeficiency virus 1, IIIB, MT2, 72 h
[13] = 0 hour, initial concentration, fresh human whole blood
[14] = 1 hour incubation at 37° C., in PBMCs
[15] = 1 hour incubation at 37° C., in plasma
[16] = 2 hour incubation at 37° C., in PBMCs
[17] = 2 hour incubation at 37° C., in plasma
[18] = cells free of virus, 3 days, luminescent signal, read-out: Toxicity CC50

Compound | inhibitory effect on HBV-DNA replication (in words) ([3]; HepG 2.2.15 cells) | inhibitory effect on HBV-DNA replication compared with positive control GS7340 ([3]; HepG 2.2.15 cells) | IC50 [3, 11] [µM] | CC50 at 6 days [4] [µM] | cytotoxicity (in words) [5] | further results
CC(C)OC(=O)OCOP(=O)(CO[C@H](C)Cn1cnc2c(N)ncnc21)OCOC(=O)OC(C)C [Tenofovir Disoproxil, reference compound] | – | – | – | – | – | EC50 ([1]; Human immunodeficiency virus 1, MT2, 72 h, MT-2 cells infected with HIV-1 (IIIb), 3 days, read-out: EC50): 0.011 µM; CC50 at 3 days [2]: 16.9 µM
CC(C)OC(=O)C(C)(C)N[P@](=O)(CO[C@H](C)Cn1cnc2c(N)ncnc21)Oc1cccc2ccccc12 [If1] | significant inhibitory effect | better than that of the positive control GS7340 | 0.0075 | > 10 | without cytotoxicity | –
CC(C)OC(=O)C(C)(C)N[P@](=O)(CO[C@H](C)Cn1cnc2c(N)ncnc21)Oc1ccc(Cl)cc1 [Ic1] | significant inhibitory effect | better than that of the positive control GS7340 | 0.0053 | > 10 | without cytotoxicity | –
CC(C)OC(=O)C(C)(C)N[P@](=O)(CO[C@H](C)Cn1cnc2c(N)ncnc21)Oc1ccc(C(F)(F)F)cc1 [Ij1] | significant inhibitory effect | better than that of the positive control GS7340 | 0.007 | > 10 | without cytotoxicity | –
Cc1cccc(C)c1O[P@@](=O)(CO[C@H](C)Cn1cnc2c(N)ncnc21)NC(C)(C)C(=O)OC(C)C [Ih1] | significant inhibitory effect | better than that of the positive control GS7340 | 0.0059 | > 10 | without cytotoxicity | –
CC(C)OC(=O)C(C)(C)N[P@](=O)(CO[C@H](C)Cn1cnc2c(N)ncnc21)Oc1ccc(F)cc1 [Ii1] | – | better than that of the positive control GS7340 | 0.0083 | > 10 | – | –
CC(C)OC(=O)C1(N[P@](=O)(CO[C@H](C)Cn2cnc3c(N)ncnc32)Oc2ccccc2)CC1 [Ib1] | significant inhibitory effect | – | 0.015 | > 10 | without cytotoxicity | –
COc1ccc(O[P@@](=O)(CO[C@H](C)Cn2cnc3c(N)ncnc32)NC(C)(C)C(=O)OC(C)C)cc1 [Id1] | significant inhibitory effect | better than that of the positive control GS7340 | 0.0062 | > 10 | without cytotoxicity | –
CC(C)OC(=O)C(C)(C)N[P@](=O)(CO[C@H](C)Cn1cnc2c(N)ncnc21)Oc1ccccc1 [Ia1] | significant inhibitory effect | better than that of the positive control GS7340 | 0.005 | > 10 | without cytotoxicity | inhibitory effect on HIV virus (in words) [1]: strong inhibitory effect; EC50 [1, 12]: 0.008 µM; Prototype concentration [6, 13]: 12.4 µM; Prototype concentration [6, 14]: 1528 µM; Prototype concentration [6, 15]: 12.3 µM; change of active metabolite-tenofovir concentration in PBMCs over the incubation time (in words) ([6]; 1 hour to 2 hours): increased significantly; Prototype concentration [6, 16]: 1282 µM; Prototype concentration [6, 17]: 12.2 µM; concentration of active metabolite-tenofovir in PBMCs relative to GS-7340 ([6]; after incubation for 2 hours): about three times; active metabolite-tenofovir detected in plasma (in words) [6]: no active metabolite-tenofovir was detected; stability in plasma (in words) ([6]; fresh human whole blood, compared with GS-7340): significantly better than the positive control GS-7340; Change value [7]: 0.6%; Purity after 6 hours [7]: 98.1%; Initial purity [7]: 98.7%; stability compared to GS-7340 (in words) ([7]; acid medium and simulated gastric juice): significantly improved; Change value [8]: 0.5%; Purity after 6 hours [8]: 98.2%; Initial purity [8]: 98.7%; cytotoxicity (in words) [9]: no cytotoxicity; CC50 at 3 days [2, 18]: > 150 µM
CC(C)OC(=O)C(C)(C)NP(=O)(CO[C@H](C)Cn1cnc2c(N)ncnc21)Oc1ccccc1 (some centres unmarked) [Ia] | – | – | 0.021 | > 10 | – | –
CC(C)OC(=O)C(C)(C)N[P@@](=O)(CO[C@H](C)Cn1cnc2c(N)ncnc21)Oc1ccccc1 [Ia2] | – | – | 0.032 | > 10 | – | –
CC(C)OC(=O)[C@H](C)N[P@](=O)(CO[C@H](C)Cn1cnc2c(N)ncnc21)Oc1ccccc1 [GS-7171, reference compound] | – | – | – | – | – | IC50 ([3]; HepG 2.2.15 cells, 6 days of culture, HBV DNA-replication by dot blot, read-out: IC50): 0.035 µM; CC50 ([5]; 6 days of culture, read-out: Toxicity CC50): > 10 µM
CC(C)OC(=O)[C@H](C)N[P@](=O)(CO[C@H](C)Cn1cnc2c(N)ncnc21)Oc1ccccc1 [GS-7340, reference compound] | – | – | 0.014 | > 10 | – | EC50 [1, 12]: 0.012 µM; metabolite-tenofovir detected in plasma [10]: 1-2%; total concentration of the active ingredient in PBMCs relative to tenofovir [10]: 30 times; total concentration of the active ingredient in PBMCs relative to tenofovir disoproxil [10]: 10 times; Prototype concentration [6, 13]: 16.9 µM; Prototype concentration [6, 14]: 2448 µM; Prototype concentration [6, 15]: 14.5 µM; change of active metabolite-tenofovir concentration in PBMCs over the incubation time (in words) ([6]; 1 hour to 2 hours): almost the same; change of active metabolite-tenofovir released in plasma over the incubation time (in words) ([6]; 1 hour to 2 hours): increased significantly; Prototype concentration [6, 16]: 2357 µM; Prototype concentration [6, 17]: 13.0 µM; active metabolite-tenofovir detected in plasma (in words) [6]: certain active metabolite-tenofovir was detected; Change value [7]: 3.2%; Purity after 6 hours [7]: 95.5%; Initial purity [7]: 98.7%; Change value [8]: 4.3%; Purity after 6 hours [8]: 94.4%; Initial purity [8]: 98.7%; CC50 at 3 days [2, 18]: > 150 µM
